Data set [1] is described as follows: Comparative solubility assay in water. The data set is classed as physicochemical.
Data set [2] can be described thus: Stability test (25° C., 40° C., light irradiation of 4500 LX, 30 days). The format is physicochemical. The procedure:
The compound represented by formula (I) of the present disclosure was subjected to HPLC for purity detection under the following conditions. The used chromatographic column was Waters, XBridge C18 4.6×150 mm, 3.5 μm; the mobile phase A consisted of buffer solution: acetonitrile=70:30, the mobile phase B consisted of buffer solution: acetonitrile=[…], the buffer solution was prepared by weighing 9.13 g of dipotassium hydrogen phosphate trihydrate in 2,000 mL of pure water, and adjusting pH using phosphoric acid to 8.0; the detection wavelength was 234 nm; the flow rate was 1.0 mL/min; the column temperature was 25° C.; and the injection volume was 10 μL.

A short description of data set [3]: Pharmacokinetic experiment in ICR mice, single gavage. The data set is classed as in vivo. The settings on record: 75 mg·kg −1, single gavage. The procedure:
Before and 0.25, 0.5, 1, 2, 4, 8, 10, 12 and 24 hours after administration, 0.15 mL blood was collected from fundus venous plexus and placed into anticoagulant tubes containing EDTA-K2.

Data set [4] deals with hepatocellular carcinoma cells Hep3B. The settings on record: reported in background for PCT/CN2017/085135 compound, read-out: inhibitory activity against hepatocellular carcinoma cells Hep3B, IC50; cited from earlier work.
[5] abbreviates: stability at 25° C., day 0, HPLC.
[6] abbreviates: stability at 25° C., day 10, HPLC.
[7] abbreviates: stability at 25° C., day 30, HPLC.
The mark [8] stands for this setting: stability at 40° C., day 0, HPLC.
[9] abbreviates: stability at 40° C., day 10, HPLC.
The mark [10] stands for this setting: stability at 40° C., day 30, HPLC.
Setting [11] is: stability under the light irradiation of 4500LX, day 0, HPLC.
[12] abbreviates: stability under the light irradiation of 4500LX, day 10, HPLC.
The mark [13] stands for this setting: stability under the light irradiation of 4500LX, day 30, HPLC.

Molecules are shown by their SMILES. Like-named read-outs stand apart in the source and are kept apart here.

The compound `C=CC(=O)Nc1cc(N2CCN(CC)C3(CC3)C2)ccc1Nc1cc(N(C)C(=O)Nc2c(Cl)c(OC)cc(OC)c2Cl)ncn1.CCS(=O)(=O)O.CCS(=O)(=O)O` [amorphous form, N-(2-((6-(3-(2,6-dichloro-3,5-dimethoxyphenyl)-1-methylureido)pyrimidin-4-yl)amino)-5-(4-ethyl-4,7-diazaspiro[2.5]octan-7-yl)phenyl)acrylamide diethanesulfonate salt] had a solubility in data set [1] (25 °C, thermodynamic from solid) of 115 mg/mL. For the same compound, the “purity (%)” value is recorded as 98.80% in data set [2] (setting [5]); 96.60% in data set [2] (setting [6]); 91.60% in data set [2] (setting [7]); 98.80% in data set [2] (setting [8]); 93.40% in data set [2] (setting [9]); 87.60% in data set [2] (setting [10]). In addition, the figures for the “purity (%)” value in data set [2] (setting [11]), in data set [2] (setting [12]) and in data set [2] (setting [13]) were 98.80%, 86.20% and 73.70%, respectively. For the same compound, in data set [3] (ICR, mouse, in vivo, po, 75 mg/kg, read-out: Tmax), the Tmax is 30 min.
Consider `C=CC(=O)Nc1cc(N2CCN(CC)C3(CC3)C2)ccc1Nc1cc(N(C)C(=O)Nc2c(Cl)c(OC)cc(OC)c2Cl)ncn1.CCS(=O)(=O)O.CCS(=O)(=O)O` [crystal form A, N-(2-((6-(3-(2,6-dichloro-3,5-dimethoxyphenyl)-1-methylureido)pyrimidin-4-yl)amino)-5-(4-ethyl-4,7-diazaspiro[2.5]octan-7-yl)phenyl)acrylamide diethanesulfonate salt], for which, in data set [1] (listed as the crystal form A of the compound represented by formula (I)), the “solubility in water at 25° C.” value was 100 mg/mL. Also, the “purity (%)” value is recorded as 99.64% in data set [2] (setting [5]); 99.63% in data set [2] (setting [6]); 99.62% in data set [2] (setting [7]); 99.64% in data set [2] (setting [8]); 99.61% in data set [2] (setting [9]); 99.60% in data set [2] (setting [10]). For the same compound, the results for the “purity (%)” value in data set [2] (setting [11]), in data set [2] (setting [12]) and in data set [2] (setting [13]) were 99.64%, 99.61% and 99.54%, respectively. Also, the Tmax in data set [3] came out at 36.6 min. The compound further yielded a Cmax in data set [3] (mouse, in vivo, po) of 3980 ng/mL. The compound further had a half-life in data set [3] (mouse, in vivo, po) of 91.2 min. For the same compound, the AUC(0-t) in data set [3] (mouse, in vivo, po, 0-24 h sampling) is 9340 ng·h/mL.
With `C=CC(=O)Nc1cc(N2CCN(CC)C3(CC3)C2)ccc1Nc1cc(N(C)C(=O)Nc2c(Cl)c(OC)cc(OC)c2Cl)ncn1` [N-(2-((6-(3-(2,6-dichloro-3,5-dimethoxyphenyl)-1-methylureido)pyrimidin-4-yl)amino)-5-(4-ethyl-4,7-diazaspiro[2.5]octane-7-yl)phenyl)acrylamide], the “solubility in water at 25° C.” value in data set [1] was “insoluble”. For the same compound, the IC50 in data set [4] is 19 nM.

As usually defined, the solubility is how much of the substance goes into solution per volume. A lower solubility goes with a poorly soluble substance. A word on the Tmax: it is the time at which the peak concentration occurs. The term Cmax denotes the peak of the concentration-time curve. As usually defined, the half-life is the time needed for the level to fall by half in the phase considered. A higher half-life goes with slow loss. In general, AUC(0-t) refers to the area under the concentration-time curve up to a stated or last time point. High values mean more exposure, low ones less exposure. The term IC50 denotes the concentration that inhibits the measured activity by half.

The record behind these values is US20250250258A1, “CRYSTAL FORM OF FGFR4 SELECTIVE INHIBITOR COMPOUND, AND PREPARATION METHOD THEREFOR AND USE THEREOF” (ZHEJIANG HISUN PHARMACEUTICAL CO., LTD., priority 2022, published 2025).
